# From patent US20180044306A1, “1,3,4-THIADIAZOL-2-YL-BENZAMIDE DERIVATIVES AS INHIBITORS OF THE WNT SIGNALLING PATHWAY” (Bayer Pharma Aktiengesellschaft, priority 2015, published 2018)
# Tests used:
# [1] = system: constitutive active colorectal cancer cell (CRC) Wnt pathway (HCT116-TOP); test: Cellular reporter assay, HCT116 Super TopFlash (TOP), constitutive active Wnt pathway; format: cell-based; details: Homo sapiens, HCT-116; HCT116 Super TopFlash reporter cells, luciferase expression, 36 hours incubation, dilution series 50 μM to 15 nM
# Description: In order to discover and characterize small molecules which inhibit the constitutive active colorectal cancer cell (CRC) Wnt pathway, a cellular reporter assay was employed. The corresponding assay cell was generated by transfection of the colorectal cancer cell line HCT116 (ATCC, #CCL-247) with the Super TopFlash vector (Morin, Science 275, 1997, 1787-1790; Molenaar et al., Cell 86 (3), 1996, 391-399). The HCT116 cell line is cultivated at 37° C. and 5% CO2 in DMEM/F-12 (Life Technologies, #11320-074), supplemented with 2 mM glutamine, 20 mM HEPES, 1.4 mM pyruvate, 0.15% Na-bicarbonate and 10% foetal bovine serum (GIBCO, #10270), this cancer cell line is pathophysiological relevant since it carries a deletion of position S45 in the β-catenin gene, leading to constitutive active Wnt signaling. Stable transfectants were generated by cotransfection with pcDNA3 and selection of stable transfected cells with 1 mg/ml G418.
# (§1) In preparation of the assay, the two cell lines were plated 24 hours before at 10000 cells per well of a 384 micro titre plate (MTP) in 30 μL growth medium. Selective inhibitory activity for small molecules on the mutated Wnt pathway was determined after parallel incubation of both (TOP and FOP) HCT116 reporter cell lines with a compound dilution series from 50 μM to 15 nM in steps of 3.16-fold dilutions in CAFTY buffer (130 mM NaCI, 5 mM KCI, 20 mM HEPES, 1 mM MgCl2, 5 mM NaHCO3, pH 7.4) containing 2 mM Ca^2+ and 0.01% BSA. The compounds were thereby serially prediluted in 100% DMSO and thereafter in addition 50 fold into the CAFTY compound dilution buffer (described above). From this dilution 10 μL were added to the cells in 30 μL growth medium and incubated for 36 hours at 37° C. and 5% CO2. Thereafter luciferase assay buffer (1:1 mixture of luciferase substrate buffer (20 mM Tricine, 2.67 mM MgSO4, 0.1 mM EDTA, 4 mM DTT, 270 μM Coenzyme A, 470 μM Luciferin, 530 μM ATP, ph adjusted to pH 7.8 with a sufficient volume of 5M NaOH) and Triton buffer (30 mL Triton X-100, 115 mL glycerol, 308 mg Dithiothreitol, 4.45 g Na2HPO4. 2 H2O, 3.03 g TRIS HCl, ad 1I H2O, pH 7.8) was added as equal volume to the compound solution on the cells to determine luciferase expression as a measure of Wnt signaling activity in a luminometer.
# [2] = system: HCT116-FOP; test: Control reporter assay, HCT116 cells with FOP control vector (non-functional TCF elements); format: cell-based; details: Homo sapiens, HCT-116, luciferase expression, 36 hours incubation, dilution series 50 μM to 15 nM, read-out: HCT116-FOP IC50 [M] mol/L]
# Description: In a parallel approach, HCT116 cells were cotransfected with the FOP control vector and pcDNA3. The FOP vector is identical to the TOP construct, but it contains instead of functional TCF elements a randomized, non-functional sequence. For this transfection a stable transfected cell line was generated as well.
# as §1
SMILES,IC50 [1] [µM],IC50 [2] [M]
"COC(=O)N1CCN(c2nnc(NC(=O)c3ccc(OC(F)(F)F)c(NC(=O)CN4CCOCC4)c3)s2)CC1 [Example 24, methyl 4-[5-({3-[(morpholin-4-ylacetyl)amino]-4-(trifluoromethoxy)benzoyl}-amino)-1,3,4-thiadiazol-2-yl]piperazine-1-carboxylate]",4.6,≥ 5e-05
"CN1CCN(CC(=O)Nc2cc(C(=O)Nc3nnc(C4CCCCC4)s3)ccc2OC(F)(F)F)CC1 [Example 5, N-(5-cyclohexyl-1,3,4-thiadiazol-2-yl)-3-{[(4-methylpiperazin-1-yl)pacetyl]amino}-4-(trifluoromethoxy)benzamide]",0.27,≥ 5e-05
CC1CCN(c2nnc(NC(=O)c3ccc(OC(F)(F)F)c(NC(=O)CN4CCN(C)CC4)c3)s2)CC1 [Example 7],0.11,≥ 5e-05
CN(C)C(=O)N1CCN(c2nnc(NC(=O)c3ccc(OC(F)(F)F)c(NC(=O)CN4CCOCC4)c3)s2)CC1 [Example 33],50,≥ 5e-05
CC1(O)CCN(c2nnc(NC(=O)c3ccc(OC(F)(F)F)c(NC(=O)CN4CCOCC4)c3)s2)CC1 [Example 27],20,≥ 5e-05
"O=C(CN1CCOCC1)Nc1cc(C(=O)Nc2nnc(N3CCN(C(=O)C4CC4)CC3)s2)ccc1OC(F)(F)F [Example 20, N-{5-[4-(cyclopropylcarbonyl)-piperazin-1-yl]-1,3,4-thiadiazol-2-yl}-3-[(morpholin-4-ylacetyl)amino]-4-(trifluoromethoxy)benzamide]",3.91,≥ 5e-05
"CN1CCN(CC(=O)Nc2cc(C(=O)Nc3nnc(N4CCC(O)CC4)s3)ccc2OC(F)(F)F)CC1 [Example 14, N-[5-(4-hydroxypiperidin-1-yl)-1,3,4-thiadiazol-2-yl]-3-{[(4-methylpiperazin-1-yl)acetyl]amino}-4-(trifluoromethoxy)benzamide]",1.45,≥ 5e-05
"CN1CCN(CC(=O)Nc2cc(C(=O)Nc3nnc(N4CCC(C)(C)CC4)s3)ccc2OC(F)(F)F)CC1 [Example 12, 4-(2-{[5-{[5-(4,4-dimethylpiperidin-1-yl)-1,3,4-thiadiazol-2-yl]carbamoyl}-2-(trifluoromethoxy)phenyl]amino}-2-oxoethyl)-1-methylpiperazin-1-ium hexafluorophosphate]",0.26,1.5e-05
"O=C(CN1CCOCC1)Nc1cc(C(=O)Nc2nnc(C3CCCCC3)s2)ccc1OC(F)(F)F [Example 23, N-(5-cyclohexyl-1,3,4-thiadiazol-2-yl)-3-[(morpholin-4-ylacetyl)amino]-4-(trifluoromethoxy)benzamide]",4.59,≥ 5e-05
"CC(C)(C)OC(=O)N1CCN(c2nnc(NC(=O)c3ccc(OC(F)(F)F)c(NC(=O)CN4CCOCC4)c3)s2)CC1 [Example 3, tert-butyl 4-[5-({3-[(morpholin-4-ylacetyl)amino]-4-(trifluoromethoxy)benzoyl}amino)-1,3,4-thiadiazol-2-yl]piperazine-1-carboxylate]",0.086,≥ 5e-05
"O=C(CN1CCOCC1)Nc1cc(C(=O)Nc2nnc(N3CCCCC3)s2)ccc1OC(F)(F)F [Example 31, 3-[(morpholin-4-ylacetyl)-amino]-N-[5-(piperidin-1-yl)-1,3,4-thiadiazol-2-yl]-4-(trifluoromethoxy)benzamide]",34.1,≥ 5e-05
